What was measured:
dog hepatocytes = test: metabolites upon exposure to dog hepatocytes
[1] = exposure following oral dosing in mice
primate hepatocytes = test: metabolites upon exposure to primate hepatocytes
467 other kinases = test: KINOMEScan assay; format: binding; settings: tested at 1 micromolar; compared to 467 other kinases
human hepatocytes = test: metabolites upon exposure to human hepatocytes
[2] = exposure following oral dosing in rats
[3] = tested on: bleomycin-induced lung fibrosis; test: bleomycin-induced lung fibrosis, treatment model; format: in vivo, C57BL/6 mice
Method: (§1) FIG. 1. Protocols used to assess the ability of the compound of Formula I to prevent or treat lung fibrosis induced by intratracheal bleomycin (30 μl; 0.05 U/mouse) or PBS (30 μl; vehicle control).
FIG. 4. […] (a) The Ashcroft score was used to obtain a semi quantitative analysis of fibrosis (n=4 mice per group). (b) Acid-soluble collagen content in the mouse lung (n=8 mice per group).
(§2) FIG. 5. Measurements of airways hyper-responsiveness (AHR) after methacholine challenge in the mouse lung. Panels (a)-(d) prevention protocol at day 23 after a single intra-tracheal dose with PBS or bleomycin and oral dosing with the compound of formula I as indicated. Panels (e)-(h) treatment protocol at day 22 after a single intra-tracheal dose with PBS or bleomycin and oral dose with the compound of formula I as indicated. Panels (a, e) show airways resistance, (b, f) transpulmonary resistance, (c, g) elastance, and (d, h) compliance following challenge with 10 mg/ml methacholine.
(§3) Lung fibrosis in female C57BL/6 mice aged between 6-8 weeks (ARC, Perth, Australia) was induced by a single intra-tracheal dose of bleomycin (0.05 U/mouse). Control mice received 30 μl of buffered saline.
(§4) There were eight mice per group for all experiments and all mice were weighed daily during administration of the treatments.

common cytochrome P450s = test: inhibition of common cytochrome P450s
[4] = exposure following oral dosing in dogs
[5] = tested on: bleomycin-induced lung fibrosis; test: bleomycin-induced lung fibrosis, prevention model; format: in vivo, C57BL/6 mice; settings: for lung damage (Ashcroft score): day 23, vs vehicle; for airways resistance (AHR): vs vehicle
Method: as §1
FIG. 3. Prevention Protocol. a) Measurement of mouse lung fibrosis on day 23 after treatment with PBS, bleomycin and vehicle, bleomycin and the compound of formula I 40 mg/kg or 80 mg/kg (n=8 mice per group). (a) The Ashcroft score was used to obtain a semi quantitative analysis of fibrosis (n=4 mice per group). (b) Acid-soluble collagen content in the mouse lung (n=8 mice per group).
as §2, §3
Mice in the prevention study were dosed orally once daily from 24 hours post bleomycin administration until day 22 with either 200 μl of vehicle (Sterile water containing 0.5% (w/v) hydroxypropylmethylcellulose, 0.5% (v/v) benzyl alcohol and 0.4% (v/v) Tween 80), or the compound of Formula I at a dosage of 40 mg/kg or 80 mg/kg by oral gavage.
as §4

rat hepatocytes = test: metabolites upon exposure to rat hepatocytes
[6] = patients with IPF; cited from earlier work
[7] = tested on: idiopathic pulmonary fibrosis; settings: cited from earlier work; for reduction in the rate of decline in FVC: patients with mild or moderate FVC impairment at baseline, over 1 year of treatment
off-target kinase = settings: literature; cited from earlier work

COc1cc(C2CCN(C)CC2)ccc1Nc1ncc(C(F)(F)F)c(CCc2ccccc2CC(N)=O)n1 [compound of Formula I]
unique metabolites (dog hepatocytes): no unique metabolites | exposure dose proportionality [1]: dose-proportional exposures | unique metabolites (primate hepatocytes): no unique metabolites | S10 selectivity score (467 other kinases): 0.02 | unique metabolites (human hepatocytes): no unique metabolites | exposure dose proportionality [2]: dose-proportional exposures | airways resistance (AHR) ([3]; 10 mg/ml methacholine, vs vehicle): no effect on airways resistance | all other measures of AHR (transpulmonary resistance, elastance, compliance) ([3]; dosing from day 7 after bleomycin, 10 mg/ml methacholine, vs vehicle): effectively reversed the AHR | lung damage (Ashcroft score) ([3]; dosing from day 7 after bleomycin, day 22, vs vehicle): did not significantly alter bleomycin-induced lung damage | inhibition of common cytochrome P450s (common cytochrome P450s): no detectable inhibition | exposure dose proportionality [4]: dose-proportional exposures | other measures of AHR (transpulmonary resistance, elastance, compliance) ([5]; 10 mg/ml methacholine): did not significantly inhibit other measures of AHR | lung damage (Ashcroft score) ([5]; 40 mg/kg oral once daily): attenuated bleomycin-induced lung damage | airways resistance (AHR) ([5]; 40 mg/kg, 10 mg/ml methacholine): significantly decreased airways resistance | lung damage (Ashcroft score) ([5]; 80 mg/kg oral once daily): not at 80 mg/kg attenuated bleomycin-induced lung damage | airways resistance (AHR) ([5]; 80 mg/kg, 10 mg/ml methacholine): significantly decreased airways resistance | unique metabolites (rat hepatocytes): no unique metabolites

Cc1ccc(=O)n(-c2ccccc2)c1 [pirfenidone]
side effects / most common adverse effects [6]: diarrhea, photosensitivity and rash | reduction in the rate of decline in FVC [7]: approximately 50%

CNC(=O)c1ccccc1Nc1nc(Nc2ccc(N3CCOCC3)cc2OC)ncc1Cl [TAE226]
off-target kinase activity (off-target kinase): significant off-target kinase activity

CN(c1ncccc1CNc1nc(Nc2ccc3c(c2)CC(=O)N3)ncc1C(F)(F)F)S(C)(=O)=O [PF-562,271]
off-target kinase activity (off-target kinase): significant off-target kinase activity

COC(=O)c1ccc2c(c1)NC(=O)/C2=C(\Nc1ccc(N(C)C(=O)CN2CCN(C)CC2)cc1)c1ccccc1 [nintedanib]
side effects / most common adverse effects [6]: nausea and diarrhea | deterioration of FVC on extended treatment ([7]; extended treatment for up to four years): sustained decline in deterioration of FVC | reduction in the rate of decline in FVC [7]: approximately 50%

Source: patent US12708624B2, “Methods of treating pulmonary fibrosis” (Amplia Therapeutics Limited, priority 2020, dated 2026)
